This is an account of results in ChEMBL document CHEMBL4342480, “Design of Dual Inhibitors of Soluble Epoxide Hydrolase and LTA4 Hydrolase” (ACS Med Chem Lett, 2020).

Holding throughout (type): functional
Assay [1] relates to Macrophage. Description: Antiinflammatory activity in Escherichia coli O6:K2:H1-induced human M1 macrophage assessed as change in 5-HEPE level at 1 uM preincubated for 10 mins followed by Escherichia coli O6:K2:H1-stimulation and measured after 180 mins by UPLC-MS/MS analysis relative to control.
In assay [2] the test system is Macrophage. Nature of the assay: Antiinflammatory activity in Escherichia coli O6:K2:H1-induced human M1 macrophage assessed as change in PGE2 level at 10 uM preincubated for 10 mins followed by Escherichia coli O6:K2:H1-stimulation and measured after 180 mins by UPLC-MS/MS analysis relative to control.
Assay [3] has as its system Macrophage. Description: Antiinflammatory activity in Escherichia coli O6:K2:H1-induced human M2 macrophage assessed as change in 5-HETE level at 1 uM preincubated for 10 mins followed by Escherichia coli O6:K2:H1-stimulation and measured after 180 mins by UPLC-MS/MS analysis relative to control.
The subject of assay [4] is Macrophage. Nature of the assay: Antiinflammatory activity in Escherichia coli O6:K2:H1-induced human M1 macrophage assessed as change in 14-HDHA level at 1 uM preincubated for 10 mins followed by Escherichia coli O6:K2:H1-stimulation and measured after 180 mins by UPLC-MS/MS analysis relative to control.
Assay [5] relates to Macrophage. Description: Antiinflammatory activity in Escherichia coli O6:K2:H1-induced human M2 macrophage assessed as change in 15-HEPE level at 1 uM preincubated for 10 mins followed by Escherichia coli O6:K2:H1-stimulation and measured after 180 mins by UPLC-MS/MS analysis relative to control.
The subject of assay [6] is Macrophage. Description: Antiinflammatory activity in Escherichia coli O6:K2:H1-induced human M2 macrophage assessed as change in 18-HEPE level at 1 uM preincubated for 10 mins followed by Escherichia coli O6:K2:H1-stimulation and measured after 180 mins by UPLC-MS/MS analysis relative to control.
Assay [7] concerns Macrophage. Description: Antiinflammatory activity in Escherichia coli O6:K2:H1-induced human M2 macrophage assessed as change in 15-HEPE level at 10 uM preincubated for 10 mins followed by Escherichia coli O6:K2:H1-stimulation and measured after 180 mins by UPLC-MS/MS analysis relative to control.
The test system of assay [8] is Macrophage. Nature of the assay: Antiinflammatory activity in Escherichia coli O6:K2:H1-induced human M2 macrophage assessed as change in 15-HETE level at 1 uM preincubated for 10 mins followed by Escherichia coli O6:K2:H1-stimulation and measured after 180 mins by UPLC-MS/MS analysis relative to control.
The subject of assay [9] is Macrophage. Nature of the assay: Antiinflammatory activity in Escherichia coli O6:K2:H1-induced human M1 macrophage assessed as change in 18-HEPE level at 10 uM preincubated for 10 mins followed by Escherichia coli O6:K2:H1-stimulation and measured after 180 mins by UPLC-MS/MS analysis relative to control.
In assay [10] the test system is Macrophage. Description: Antiinflammatory activity in Escherichia coli O6:K2:H1-induced human M2 macrophage assessed as change in […] level at 10 uM preincubated for 10 mins followed by Escherichia coli O6:K2:H1-stimulation and measured after 180 mins by UPLC-MS/MS analysis relative to control.
The test system of assay [11] is Macrophage. Nature of the assay: Antiinflammatory activity in Escherichia coli O6:K2:H1-induced human M2 macrophage assessed as change in PGF2alpha level at 1 uM preincubated for 10 mins followed by Escherichia coli O6:K2:H1-stimulation and measured after 180 mins by UPLC-MS/MS analysis relative to control.
Assay [12] has as its system Macrophage. Nature of the assay: Antiinflammatory activity in Escherichia coli O6:K2:H1-induced human M1 macrophage assessed as change in 15-HETE level at 1 uM preincubated for 10 mins followed by Escherichia coli O6:K2:H1-stimulation and measured after 180 mins by UPLC-MS/MS analysis relative to control.
Assay [13] relates to Macrophage. Nature of the assay: Antiinflammatory activity in Escherichia coli O6:K2:H1-induced human M1 macrophage assessed as change in PGE2 level at 1 uM preincubated for 10 mins followed by Escherichia coli O6:K2:H1-stimulation and measured after 180 mins by UPLC-MS/MS analysis relative to control.
Assay [14] concerns Macrophage. Nature of the assay: Antiinflammatory activity in Escherichia coli O6:K2:H1-induced human M2 macrophage assessed as change in PGE2 level at 10 uM preincubated for 10 mins followed by Escherichia coli O6:K2:H1-stimulation and measured after 180 mins by UPLC-MS/MS analysis relative to control.
The test system of assay [15] is Macrophage. Description: Antiinflammatory activity in Escherichia coli O6:K2:H1-induced human M1 macrophage assessed as change in 4-HDHA level at 10 uM preincubated for 10 mins followed by Escherichia coli O6:K2:H1-stimulation and measured after 180 mins by UPLC-MS/MS analysis relative to control.
Assay [16] deals with Macrophage. Description: Antiinflammatory activity in Escherichia coli O6:K2:H1-induced human M1 macrophage assessed as change in 12-HETE level at 10 uM preincubated for 10 mins followed by Escherichia coli O6:K2:H1-stimulation and measured after 180 mins by UPLC-MS/MS analysis relative to control.
In assay [17] the test system is Macrophage. Description: Antiinflammatory activity in Escherichia coli O6:K2:H1-induced human M1 macrophage assessed as change in 4-HDHA level at 1 uM preincubated for 10 mins followed by Escherichia coli O6:K2:H1-stimulation and measured after 180 mins by UPLC-MS/MS analysis relative to control.
In assay [18] the test system is Macrophage. Nature of the assay: Antiinflammatory activity in Escherichia coli O6:K2:H1-induced human M1 macrophage assessed as change in total LTB4 level at 10 uM preincubated for 10 mins followed by Escherichia coli O6:K2:H1-stimulation and measured after 180 mins by UPLC-MS/MS analysis relative to control.
The subject of assay [19] is Macrophage. Description: Antiinflammatory activity in Escherichia coli O6:K2:H1-induced human M1 macrophage assessed as change in 15-HEPE level at 1 uM preincubated for 10 mins followed by Escherichia coli O6:K2:H1-stimulation and measured after 180 mins by UPLC-MS/MS analysis relative to control.
For assay [20], the system named is Macrophage. Nature of the assay: Antiinflammatory activity in Escherichia coli O6:K2:H1-induced human M1 macrophage assessed as change in 7-HDHA level at 1 uM preincubated for 10 mins followed by Escherichia coli O6:K2:H1-stimulation and measured after 180 mins by UPLC-MS/MS analysis relative to control.
Assay [21] deals with Macrophage. Description: Antiinflammatory activity in Escherichia coli O6:K2:H1-induced human M2 macrophage assessed as change in 12-HETE level at 10 uM preincubated for 10 mins followed by Escherichia coli O6:K2:H1-stimulation and measured after 180 mins by UPLC-MS/MS analysis relative to control.
Assay [22] concerns Macrophage. Nature of the assay: Antiinflammatory activity in Escherichia coli O6:K2:H1-induced human M1 macrophage assessed as change in […] level at 1 uM preincubated for 10 mins followed by Escherichia coli O6:K2:H1-stimulation and measured after 180 mins by UPLC-MS/MS analysis relative to control.
Assay [23] relates to Macrophage. Nature of the assay: Antiinflammatory activity in Escherichia coli O6:K2:H1-induced human M2 macrophage assessed as change in 17-HDHA level at 1 uM preincubated for 10 mins followed by Escherichia coli O6:K2:H1-stimulation and measured after 180 mins by UPLC-MS/MS analysis relative to control.
For assay [24], the system named is Macrophage. Description: Antiinflammatory activity in Escherichia coli O6:K2:H1-induced human M2 macrophage assessed as change in 5.15-dlHETE level at 10 uM preincubated for 10 mins followed by Escherichia coli O6:K2:H1-stimulation and measured after 180 mins by UPLC-MS/MS analysis relative to control.

As for `O=C(Cc1ccc(Oc2nc3ccccc3s2)cc1F)NCCc1ccc(F)cc1`, the Activity in assay [1] worked out at 102%; in assay [2], 77%; in assay [3], 68%; in assay [4] it was 110%; in [5] it was 81%; in assay [6], 86%. Besides, the Activity is 120% in assay [7]; 82% in assay [8]; 73% in assay [9]; 26% in assay [10]; 63% in [11]; 102% in assay [12]. Further, the Activity was determined as 109% in [13]; 51% in assay [14]; 72% in [15]; 131% in [16]; 88% in [17]; 28% in assay [18]. Besides, the Activity in assay [19] is reported as 97%; in assay [20] it was 113%; in assay [21], 114%; in [22], 134%; in assay [23] it was 106%; in assay [24], 101%.
